# Where “and” joins values, the source holds several entries; their conditions need not be identical. Equal values may be shown once.
# Species on record: Mus musculus
# Test: Effect on capsaicin-induced licking in mouse
# Type: functional
# Details: not given
row,Structure (SMILES),ED50
1,CC(C)(C)c1ccc(NC(=O)c2ccc(OC(F)(F)C(F)F)cc2)cc1,3.8 mg/kg

# System: not listed separately
# Test: Half life in po dosed rat administered through 0.1% MC solution
# Type: ADME, organism-based
# Details: in vivo
row,half-life,Structure (SMILES)
1,1.2 h,Cn1c2c(c3cc(O)ccc31)C(CNC(=O)c1ccc(OC(F)(F)F)cc1)CCC2 (configuration not stated)

# Molecular target: Transient receptor potential cation channel subfamily V member 1 (Homo sapiens, UniProt Q8NER1)
# Sequence (Q8NER1 whole entry): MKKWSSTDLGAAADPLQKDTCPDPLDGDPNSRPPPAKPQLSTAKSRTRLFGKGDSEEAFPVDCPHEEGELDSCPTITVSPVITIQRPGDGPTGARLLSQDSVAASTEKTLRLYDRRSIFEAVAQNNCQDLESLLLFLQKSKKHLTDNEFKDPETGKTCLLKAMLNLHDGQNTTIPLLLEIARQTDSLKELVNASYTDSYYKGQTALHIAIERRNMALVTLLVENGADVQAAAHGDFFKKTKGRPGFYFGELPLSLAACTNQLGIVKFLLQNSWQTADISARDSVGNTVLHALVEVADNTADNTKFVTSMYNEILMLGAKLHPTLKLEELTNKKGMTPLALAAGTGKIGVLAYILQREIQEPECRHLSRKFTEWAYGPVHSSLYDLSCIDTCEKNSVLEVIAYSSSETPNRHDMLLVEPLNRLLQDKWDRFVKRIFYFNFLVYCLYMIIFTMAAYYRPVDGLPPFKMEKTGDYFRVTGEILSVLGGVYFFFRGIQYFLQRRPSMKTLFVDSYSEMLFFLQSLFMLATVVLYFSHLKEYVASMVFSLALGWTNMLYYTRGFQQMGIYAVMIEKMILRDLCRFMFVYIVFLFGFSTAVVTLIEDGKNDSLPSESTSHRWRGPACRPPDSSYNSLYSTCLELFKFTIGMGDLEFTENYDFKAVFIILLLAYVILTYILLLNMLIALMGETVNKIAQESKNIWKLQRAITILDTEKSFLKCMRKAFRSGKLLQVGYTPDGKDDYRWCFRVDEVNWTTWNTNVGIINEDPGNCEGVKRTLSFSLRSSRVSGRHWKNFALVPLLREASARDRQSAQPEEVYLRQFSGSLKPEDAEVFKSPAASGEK
# Test: Antagonist activity at human TRPV1 assessed as inhibition of capsaicin-induced calcium influx in HEK293 cells
# Type: functional, cell-based
# Details: not given
row,IC50,Structure (SMILES)
1,3720 nM,O=C(NCCc1c[nH]c2ccc(Cl)cc12)c1ccc(OC(F)(F)F)cc1
2,790 nM,O=C(Nc1ccc(I)cc1)c1ccc(C(=O)C(F)(F)F)cc1
3,> 10000 nM,CC(C)(C)c1ccc2[nH]cc(CCNC(=O)c3ccc(OC(F)(F)F)cc3)c2c1
4,> 10000 nM,COc1ccc2[nH]cc(CCNC(=O)c3ccc(OCCN(C)C)cc3)c2c1
5,> 10000 nM,CC(=O)c1ccc(C(=O)Nc2ccc(I)cc2)cc1
6,280 nM,O=C(Nc1ccc(I)cc1)c1ccc(OC(F)(F)F)cc1
7,> 10000 nM,O=C(Nc1ccc(I)cc1)c1cccc(C(F)(F)F)c1
8,3940 nM,COc1ccc2[nH]cc(CCNC(=O)c3ccc(-c4ccccc4)nc3)c2c1
9,3400 nM,COc1ccc2[nH]cc(CCNC(=O)c3ccc(OCC(F)(F)F)nc3)c2c1
10,120 nM,CC(C)(C)c1ccc(NC(=O)c2ccc(OC(F)(F)F)cc2)cc1
11,400 nM,COc1ccc2[nH]cc(C(C)CNC(=O)c3ccc(OC(F)(F)F)cc3)c2c1 (configuration not stated)
12,220 nM,CC(C)(C)c1ccc(NC(=O)c2ccc(C(F)(F)F)cc2)cc1
13,550 nM,CC(CNC(=O)c1ccc(OC(F)(F)F)cc1)c1c[nH]c2ccc(O)cc12 (configuration not stated)
14,5070 nM,COc1ccc2[nH]c(C)c(C(C)CNC(=O)c3ccc(OC(F)(F)F)cc3)c2c1 (configuration not stated)
15,220 nM,O=C(Nc1ccc(C(F)(F)F)cc1)c1ccc(OC(F)(F)F)cc1
16,1890 nM,COc1ccc2[nH]cc(CCNC(=O)c3ccc(Oc4ccccc4)cc3)c2c1
17,3280 nM,Cc1[nH]c2ccc(O)cc2c1C(C)CNC(=O)c1ccc(OC(F)(F)F)cc1 (configuration not stated)
18,200 nM,O=C(NCC1CCCc2[nH]c3ccc(O)cc3c21)c1ccc(OC(F)(F)F)cc1 (configuration not stated)
19,2600 nM,O=C(NCCc1cccc2ccccc12)c1ccc(OC(F)(F)F)cc1
20,776 nM,O=C(NCCc1ccccc1Cl)c1ccc(OC(F)(F)F)cc1
21,1160 nM,COc1ccc2[nH]cc(CCNC(=O)c3ccc(C4CCCCC4)cc3)c2c1

row,IC50,Structure (SMILES)
1,> 10000 nM,O=C(NCCc1ccnc2ccccc12)c1ccc(OC(F)(F)F)cc1
2,4600 nM,O=C(NCCN1CCCc2ccccc21)c1ccc(OC(F)(F)F)cc1
3,5400 nM,O=C(NCCC1CCCc2ccccc21)c1ccc(OC(F)(F)F)cc1 (configuration not stated)
4,7300 nM,O=C(NCCn1ccc2ccccc21)c1ccc(OC(F)(F)F)cc1
5,> 10000 nM,COc1ccc2c(OC)ccc(CCNC(=O)c3ccc(OC(F)(F)F)cc3)c2c1
6,> 10000 nM,COc1ccc2nccc(CCNC(=O)c3ccc(OC(F)(F)F)cc3)c2c1
7,4650 nM,COc1ccc2c(c1)C(CCNC(=O)c1ccc(OC(F)(F)F)cc1)CCC2 (configuration not stated)
8,150 nM,O=C(NCCc1cccc2ccc(O)cc12)c1ccc(OC(F)(F)F)cc1
9,76 nM,O=C(NCCc1ccc(O)c2ccc(O)cc12)c1ccc(OC(F)(F)F)cc1
10,210 nM,O=C(Nc1ccc2c(c1)CCC2)c1ccc(OC(F)(F)F)cc1
11,> 10000 nM,CC(C)(C)c1cc(NC(=O)c2ccc(OC(F)(F)F)cc2)cc(C(C)(C)C)c1
12,1230 nM,O=C(NCCc1ccnc2ccc(O)cc12)c1ccc(OC(F)(F)F)cc1
13,960 nM,O=C(NCCN1CCCc2ccc(O)cc21)c1ccc(OC(F)(F)F)cc1
14,3100 nM,COc1ccc2cccc(CC(C)NC(=O)c3ccc(OC(F)(F)F)cc3)c2c1 (configuration not stated)
15,> 10000 nM,O=C(Nc1ccc(C2CCCCC2)cc1)c1ccc(OC(F)(F)F)cc1
16,> 10000 nM,O=C(Nc1ccc(-c2ccccc2)cc1)c1ccc(OC(F)(F)F)cc1
17,> 10000 nM,O=C(Nc1ccc(I)cc1)Nc1ccc(C(F)(F)F)cc1
18,> 10000 nM,COc1ccc2nccc(CC(C)NC(=O)c3ccc(OC(F)(F)F)cc3)c2c1 (configuration not stated)
19,740 nM,CC(Cc1ccnc2ccc(O)cc12)NC(=O)c1ccc(OC(F)(F)F)cc1 (configuration not stated)
20,> 10000 nM,CC(C)(C)c1ccc(CC(=O)c2ccc(C(F)(F)F)cc2)cc1
21,> 10000 nM,CN(C(=O)c1ccc(OC(F)(F)F)cc1)c1ccc(C(C)(C)C)cc1

row,IC50,Structure (SMILES)
1,> 10000 nM,O=C(Nc1ccc(C(F)(F)F)cc1)c1ccc(I)cc1
2,> 10000 nM,CC(C)(C)c1ccc(-n2nnc(-c3ccc(C(F)(F)F)cc3)n2)cc1
3,> 10000 nM,CC(C)(C)c1ccc(-c2cc3cc(C(C)(C)C)ccc3[nH]2)cc1
4,477 nM,CC(C)(C)c1ccc2[nH]c(-c3ccc(OC(F)(F)C(F)F)cc3)nc2c1
5,1420 nM,CC(C)(C)c1ccc(-c2nc3cc(OC(F)(F)F)ccc3[nH]2)cc1
6,7350 nM,O=C(NCCc1c[nH]c2ccccc12)c1ccc(OC(F)(F)F)cc1
7,> 10000 nM,Cn1cc(CCNC(=O)c2ccc(C(F)(F)F)cc2)c2ccccc21
8,1310 nM,COc1ccc2[nH]cc(CCNC(=O)c3ccc(OC(F)(F)F)cc3)c2c1
9,2620 nM,O=C(NCCc1c[nH]c2ccc(F)cc12)c1ccc(OC(F)(F)F)cc1
10,> 10000 nM and 1930 nM,O=C(NCCc1cccc(Cl)c1)c1ccc(OC(F)(F)F)cc1
11,1640 nM,COc1ccc2[nH]cc(CCNC(=O)c3ccc(OC(F)(F)C(F)F)cc3)c2c1
12,1730 nM,O=C(NCCc1c[nH]c2ccc(O)cc12)c1ccc(OC(F)(F)F)cc1
13,205 nM,O=C(NCCc1c(Cl)cccc1Cl)c1ccc(OC(F)(F)F)cc1
14,2560 nM,O=C(NCCc1ccc(Cl)cc1Cl)c1ccc(OC(F)(F)F)cc1
15,3700 nM,O=C(NCCc1ccc(Cl)c(Cl)c1)c1ccc(OC(F)(F)F)cc1
16,3490 nM,O=C(NCCc1ccccc1F)c1ccc(OC(F)(F)F)cc1
17,6000 nM,FC(F)(F)c1ccc(-c2ncc(-c3ccc(Br)cc3)[nH]2)cc1
18,380 nM,FC(F)C(F)(F)Oc1ccc(-c2nc3cc(Br)ccc3[nH]2)cc1
19,4230 nM,O=C(NCCc1c[nH]c2ccccc12)c1ccc(C(F)(F)F)cc1
20,490 nM,COc1ccc2c(c1)c1c(n2C)CCCC1CNC(=O)c1ccc(OC(F)(F)F)cc1 (configuration not stated)
21,6700 nM,O=C(NCCc1cccc2ccncc12)c1ccc(OC(F)(F)F)cc1

row,IC50,Structure (SMILES)
1,3430 nM,COc1ccc2[nH]cc(CCNC(=O)c3ccc(CC(C)C)cc3)c2c1
2,> 10000 nM,COc1ccc2[nH]cc(CCNC(=O)c3ccc(-c4ccncc4)cc3)c2c1
3,> 10000 nM,COc1ccc2[nH]cc(CCNC(=O)c3ccc(C(F)(F)F)nc3)c2c1
4,1350 nM,O=C(NCCC1CCCc2ccc(O)cc21)c1ccc(OC(F)(F)F)cc1 (configuration not stated)
5,2090 nM,COc1ccc2[nH]cc(CCNC(=O)c3ccc(C(F)(F)F)cc3)c2c1
6,70 nM,CC(C)(C)c1ccc(NC(=O)c2ccc(OC(F)(F)C(F)F)cc2)cc1
7,253 nM,CC(C)(C)c1ccc(NC(=O)c2ccc(SC(F)(F)F)cc2)cc1
8,> 10000 nM,CC(C)(C)c1ccc(/C=C(\C#N)c2ccc(C(F)(F)F)cc2)cc1
9,1400 nM,COc1ccc2cccc(CCNC(=O)c3ccc(OC(F)(F)F)cc3)c2c1
10,3550 nM,COc1ccc2ccn(CCNC(=O)c3ccc(OC(F)(F)F)cc3)c2c1
11,> 10000 nM,CC(C)(C)c1ccc(NC(=O)c2ccc(OCC(F)(F)F)cc2)cc1
12,81 nM,CC(Cc1cccc2ccc(O)cc12)NC(=O)c1ccc(OC(F)(F)F)cc1 (configuration not stated)
13,370 nM,COc1ccc2[nH]cc(CCNC(=O)c3ccc(-c4ccccc4)cc3)c2c1
14,> 10000 nM,CS(=O)(=O)c1ccc(C(=O)Nc2ccc(I)cc2)cc1
15,330 nM,O=C(Nc1ccc(I)cc1)c1ccc(C(F)(F)F)cc1
16,> 10000 nM,COc1ccc2c(c1)N(CCNC(=O)c1ccc(OC(F)(F)F)cc1)CCC2
17,1400 nM,CCC(c1ccccn1)c1c(Cl)c(Cl)cc2[nH]c(=O)c(=O)[nH]c12 (configuration not stated)
18,23 nM,Cn1c2c(c3cc(O)ccc31)C(CNC(=O)c1ccc(OC(F)(F)F)cc1)CCC2 (configuration not stated)
19,4970 nM,CC(C)(C)C1CCC(c2nc3ccc(OC(F)(F)F)cc3[nH]2)CC1 (configuration not stated)
20,14 nM,CC(CNC(=O)c1ccc(OC(F)(F)F)cc1)c1ccc(O)c2ccc(O)cc12 (racemic)

row,Structure (SMILES),IC50
1,O=C(Nc1ccc(I)cc1)c1ccccc1C(F)(F)F,> 10000 nM
2,CC(C)(C)c1ccc(C(N)C(=O)c2ccc(OC(F)(F)F)cc2)cc1 (configuration not stated),> 10000 nM

# Same assay, conditions: read-out: pA2 (converted)
row,Kb,Structure (SMILES)
1,145 nM,COc1ccc2[nH]cc(C(C)CNC(=O)c3ccc(OC(F)(F)F)cc3)c2c1 (configuration not stated)

# Species on record: Rattus norvegicus
# Test: Effect on capsaicin-induced hypothermia in rat
# Type: functional
# Details: not given
row,Structure (SMILES),ED50
1,CC(C)(C)c1ccc(NC(=O)c2ccc(OC(F)(F)C(F)F)cc2)cc1,4.2 mg/kg

# System: Rattus norvegicus
# Test: Reduction of rectal temperature in rat CCI model at 100 mg/kg, ip
# Type: functional
# Details: route intraperitoneal
row,Structure (SMILES),inhibition in vivo at 100 mg/kg
1,CC(C)(C)c1ccc(NC(=O)c2ccc(OC(F)(F)C(F)F)cc2)cc1,59%

# Species on record: Mus musculus
# Test: Effect on capsaicin-induced hypothermia in mouse
# Type: functional
# Details: not given
row,Structure (SMILES),ED50
1,CC(C)(C)c1ccc(NC(=O)c2ccc(OC(F)(F)C(F)F)cc2)cc1,4.5 mg/kg

# Molecular target: Transient receptor potential cation channel subfamily V member 1 (Rattus norvegicus, UniProt O35433)
# Sequence (O35433 whole entry): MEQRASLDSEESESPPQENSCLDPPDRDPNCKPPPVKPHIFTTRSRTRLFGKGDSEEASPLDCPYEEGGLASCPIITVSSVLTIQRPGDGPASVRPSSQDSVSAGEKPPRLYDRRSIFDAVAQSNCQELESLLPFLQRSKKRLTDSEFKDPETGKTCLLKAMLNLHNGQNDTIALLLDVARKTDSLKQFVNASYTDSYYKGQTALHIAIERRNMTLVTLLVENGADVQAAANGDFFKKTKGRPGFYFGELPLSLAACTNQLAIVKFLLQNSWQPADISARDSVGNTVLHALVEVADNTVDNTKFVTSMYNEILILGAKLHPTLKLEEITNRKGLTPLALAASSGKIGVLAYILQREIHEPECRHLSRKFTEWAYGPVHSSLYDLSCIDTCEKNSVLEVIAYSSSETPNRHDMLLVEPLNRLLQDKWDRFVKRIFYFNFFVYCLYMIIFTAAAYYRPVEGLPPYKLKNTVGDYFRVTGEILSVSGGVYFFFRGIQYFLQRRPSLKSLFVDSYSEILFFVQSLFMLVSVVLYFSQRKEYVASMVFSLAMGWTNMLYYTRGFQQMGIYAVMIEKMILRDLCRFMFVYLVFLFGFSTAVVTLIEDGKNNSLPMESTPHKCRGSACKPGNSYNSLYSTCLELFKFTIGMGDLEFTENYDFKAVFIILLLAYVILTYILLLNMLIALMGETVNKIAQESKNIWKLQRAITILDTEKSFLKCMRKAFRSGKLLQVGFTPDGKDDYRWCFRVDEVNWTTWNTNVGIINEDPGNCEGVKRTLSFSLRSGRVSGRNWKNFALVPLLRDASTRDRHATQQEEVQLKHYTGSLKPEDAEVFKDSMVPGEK
# Test: Antagonist activity at rat TRPV1 assessed as inhibition of capsaicin-induced calcium mobilization
# Type: functional
# Details: not given
row,IC50,Structure (SMILES)
1,5200 nM,COc1ccc2[nH]cc(C(C)CNC(=O)c3ccc(OC(F)(F)F)cc3)c2c1 (configuration not stated)
2,260 nM,CC(C)(C)c1ccc(NC(=O)c2ccc(OC(F)(F)C(F)F)cc2)cc1
3,410 nM,Cn1c2c(c3cc(O)ccc31)C(CNC(=O)c1ccc(OC(F)(F)F)cc1)CCC2 (configuration not stated)
4,44 nM,CC(CNC(=O)c1ccc(OC(F)(F)F)cc1)c1ccc(O)c2ccc(O)cc12 (racemic)

# System: Mus musculus
# Test: Reduction of rectal temperature in mouse CCI model at 100 mg/kg, ip
# Type: functional
# Details: route intraperitoneal
row,Structure (SMILES),inhibition in vivo at 100 mg/kg
1,CC(C)(C)c1ccc(NC(=O)c2ccc(OC(F)(F)C(F)F)cc2)cc1,59%

# System: not listed separately
# Test: Oral bioavailability in rat administered through PEG400
# Type: ADME, organism-based
# Details: in vivo
row,bioavailability,Structure (SMILES)
1,30.2%,Cn1c2c(c3cc(O)ccc31)C(CNC(=O)c1ccc(OC(F)(F)F)cc1)CCC2 (configuration not stated)

# System: not listed separately
# Test: Oral bioavailability in rat administered through 0.1% MC solution
# Type: ADME, organism-based
# Details: in vivo
row,bioavailability,Structure (SMILES)
1,0.7%,Cn1c2c(c3cc(O)ccc31)C(CNC(=O)c1ccc(OC(F)(F)F)cc1)CCC2 (configuration not stated)

# System: Mus musculus
# Test: Effect on carrageenan-induced thermal hyperalgesia in mouse at 30 mg/kg, ip
# Type: functional
# Details: route intraperitoneal
row,Structure (SMILES),inhibition in vivo at 30 mg/kg
1,CC(C)(C)c1ccc(NC(=O)c2ccc(OC(F)(F)C(F)F)cc2)cc1,52%

# System: Rattus norvegicus
# Test: Effect on carrageenan-induced thermal hyperalgesia in rat at 30 mg/kg, ip
# Type: functional
# Details: route intraperitoneal
row,Structure (SMILES),inhibition in vivo at 30 mg/kg
1,CC(C)(C)c1ccc(NC(=O)c2ccc(OC(F)(F)C(F)F)cc2)cc1,52%

# System: not listed separately
# Test: Half life in po dosed rat administered through PEG400
# Type: ADME, organism-based
# Details: in vivo
row,half-life,Structure (SMILES)
1,2.1 h,Cn1c2c(c3cc(O)ccc31)C(CNC(=O)c1ccc(OC(F)(F)F)cc1)CCC2 (configuration not stated)

# System: not listed separately
# Test: Half life in iv dosed rat
# Type: ADME, organism-based
# Details: in vivo
row,half-life,Structure (SMILES)
1,2.1 h,Cn1c2c(c3cc(O)ccc31)C(CNC(=O)c1ccc(OC(F)(F)F)cc1)CCC2 (configuration not stated)
